Results from patent US20160346291A1, “COMPOSITIONS AND THERAPEUTIC METHODS FOR ACCELERATED PLAQUE REGRESSION” (Resverlogix Corp, priority 2013, published 2016).
Read-outs that look alike come from different tables or passages of the source.

What was measured:
[1] = test system: coronary atherosclerosis; details: 2 years; rosuvastatin 40 mg daily, atorvastatin 80 mg daily; cited from earlier work
[2] = test system: coronary atherosclerosis; details: cited from earlier work
[3] = test system: ABCA1; details: cited from earlier work
[4] = test system: coronary atherosclerosis; details: 2 years; pravastatin 40 mg daily, atorvastatin 80 mg daily; cited from earlier work
[5] = test system: ApoA-I mRNA; assay: ApoA-I mRNA quantitation in HepG2 cells (real-time PCR); format: cell-based; parameters: key: Active: An active compound is one that causes a >15% increase in ApoA-I mRNA at a concentration less than or equal to 100 uM; details: concentration less than or equal to 100 uM, fold induction relative to DMSO control
In short: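 HepG2 cells were lysed after compound treatment and mRNA captured on oligo plates, then quantified by one-step real-time RT-PCR with primer-probe mixes. Ct values gave fold induction relative to the matching DMSO control. Active means >15% increase in ApoA-I mRNA at ≤100 uM.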

SMILES | effect on expression of ABCA1 [3] | Effect on ApoA-I mRNA levels [5] | further results
CC(C)c1nc(N(C)S(C)(=O)=O)nc(-c2ccc(F)cc2)c1/C=C/[C@@H](O)C[C@@H](O)CC(=O)O [rosuvastatin, (3R,5S,6E)-7-[4-(4-fluorophenyl)-2-(N-methylmethanesulfonamido)-6-(propan-2-yl)pyrimidin-5-yl]-3,5-dihydroxyhept-6-enoic acid] | increase expression of ABCA1 |  | median change in PAV [1]: −1.22%; median change PAV ([2]; 2 years, rosuvastatin 40 mg daily, overall): −0.79%; median decrease in PAV from baseline ([2]; 2 years, rosuvastatin 40 mg daily, subgroup with average HDL-C during treatment less than 40 mg/dL): −1.3%; PAV decrease ([2]; FIG. 8, 40 mg of rosuvastatin without RVX-208, after 104 weeks): 1.30%
O=C(O)C[C@H](O)C[C@H](O)/C=C/c1c(C2CC2)nc2ccccc2c1-c1ccc(F)cc1 [pitavastatin, (3R,5S,6E)-7-[2-cyclopropyl-4-(4-fluorophenyl)quinolin-3-yl]-3,5-dihydroxyhept-6-enoic acid] | increase expression of ABCA1 |  | 
CC(C)c1c(C(=O)Nc2ccccc2)c(-c2ccccc2)c(-c2ccc(F)cc2)n1CC[C@@H](O)C[C@@H](O)CC(=O)O [atorvastatin] | inhibit ABCA1 expression |  | median change in PAV [1]: −0.99%; median change in PAV [4]: +0.2%
Cc1cc(C)c2c(=O)[nH]c(-c3cc(C)c(OCCO)c(C)c3)nc2c1 [2-(4-(2-hydroxyethoxy)-3,5-dimethylphenyl)-5,7-dimethylquinazolin-4(3H)-one] |  | Active | 
Oc1ccc(-c2cc3ncccc3cn2)cc1 [4-(1,6-naphthyridin-7-yl)phenol] |  | Active | 
COc1cc(OC)c2c(=O)[nH]c(-c3cc(C)c(OCCNS(C)(=O)=O)c(C)c3)nc2c1 [N-(2-(4-(5,7-dimethoxy-4-oxo-3,4-dihydroquinazolin-2-yl)-2,6-dimethylphenoxy)ethyl)methanesulfonamide] |  | Active | 
N=C(N)NCCCC(N)C(=O)Oc1ccc(-c2cc3ccccc3c(=O)[nH]2)cc1 (stereo not shown) [4-(1-Oxo-1,2-dihydroisoquinolin-3-yl)phenyl 2-amino-5-guanidinopentanoate] |  | Active | 
COc1cc(OC)c2c(=O)[nH]c(-c3cc(C)c(/N=C/N(C)C)c(C)c3)nc2c1 [(E)-N′-(4-(5,7-dimethoxy-4-oxo-3,4-dihydroquinazolin-2-yl)-2,6-dimethylphenyl)-N,N-dimethylformimidamide] |  | Active | 
COc1cc(OC)c2c(=O)[nH]c(-c3cc(C)c(OCCNC(C)=O)c(C)c3)nc2c1 [N-(2-(4-(5,7-dimethoxy-4-oxo-3,4-dihydroquinazolin-2-yl)-2,6-dimethylphenoxy)ethyl)acetamide] |  | Active | 
COc1ccc(NC(=O)NCCOc2c(C)cc(-c3nc4cc(OC)cc(OC)c4c(=O)[nH]3)cc2C)cc1 [1-(2-(4-(5,7-dimethoxy-4-oxo-3,4-dihydroquinazolin-2-yl)-2,6-dimethylphenoxy)ethyl)-3-(4-methoxyphenyl)urea] |  | Active | 
